Patent US12590966B2, “Method for treating cancer” (THE CHILDREN'S MEDICAL CENTER CORPORATION, priority 2019, dated 2026)

Tests used:
Jurkat cells [1] = test system: Jurkat cells
Text: It was then sought to determine whether GSK3α promotes survival in response to starvation of these amino acids. […] It was then asked whether GSK3α promotes the survival of normal cells in response to essential amino acid starvation, using normal human CD34+ hematopoietic progenitors or CCD841 cells derived from normal human intestinal epithelium (38).

Jurkat T-ALL cells = experiment: Co-localization of K48-linked ubiquitin with GSK3α bodies by immunofluorescence; type: cell-based, human; conditions: combination with asparaginase
Protocol: (FIG. 6A) Jurkat T-ALL cells were treated with vehicle, asparaginase, the GSK3α inhibitor BRD0705, or the combination of asparaginase and BRD0705 (combo). Immunofluorescence microscopy was then performed for GSK3α, K48-linked ubiquitin chains (which mark proteins for proteasomal degradation), or the nuclear marker DAPI. […] (FIG. 6B) Quantification of the immunofluorescence in 50 cells from each condition. Coloc refers to co-localization of both GSK3α and ubiquitin (ub), as determined by yellow color on the merged confocal image. ****, p<0.0001. ns (not significant), p>0.05.

Jurkat cells [2] = experiment: GSK3α body (puncta) formation by confocal immunofluorescence microscopy; type: cell-based, human; conditions: for Formation of GSK3α puncta on addition of amino acid: asparagine depleted cell
Protocol: (§1) FIGS. 4A-4D show asparagine starvation induces phase separation of GSK3α into cytoplasmic bodies (or puncta), but not GSK3b. (FIG. 4A) Confocal immunofluorescence microscopy for GSK3α or the nuclear marker DAPI, in Jurkat cells treated with vehicle or asparaginase (100 U/L) for 48 hours. (FIG. 4B) Confocal immunofluorescence microscopy for GSK3β or the nuclear marker DAPI, in Jurkat cells treated with vehicle or asparaginase (100 U/L) for 48 hours. (FIG. 4C) Number of puncta per 50 cells. (FIG. 4D) Formation of GSK3α bodies is selective to asparaginase, and is not induced by other cellular stressors such as other chemotherapeutics or heat shock. ****, p<0.0001. ns (not significant), p>0.05.
FIGS. 6A and 6B show GSK3α bodies function in the protein ubiquitination-proteasomal degradation pathway in response to asparagine starvation. (FIG. 6A) Jurkat T-ALL cells were treated with vehicle, asparaginase, the GSK3α inhibitor BRD0705, or the combination of asparaginase and BRD0705 (combo). Immunofluorescence microscopy was then performed for GSK3α, K48-linked ubiquitin chains (which mark proteins for proteasomal degradation), or the nuclear marker DAPI. Note that GSK3a can still undergo translocation into GSK3a bodies even if its enzymatic activity is inhibited, but the ability of GSK3a bodies to ubiquitinate proteins is completely dependent on the enzymatic activity of GSK3α. (FIG. 6B) Quantification of the immunofluorescence in 50 cells from each condition. Coloc refers to co-localization of both GSK3α and ubiquitin (ub), as determined by yellow color on the merged confocal image. ****, p<0.0001. ns (not significant), p>0.05.
(§2) To test whether GSK3α undergoes spatial sequestration in response to asparaginase, we applied immunofluorescence using paralog-selective antibodies (FIG. S4).

[3] = test system: CCD841 cells derived from normal human intestinal epithelium; experiment: Survival under essential amino acid starvation; type: cell-based
[4] = test system: normal human CD34+ hematopoietic progenitors; experiment: Survival under essential amino acid starvation; type: cell-based
Jurkat cells [5] = experiment: Proteinase K protection assay of GSK3α; type: cell-based, human; conditions: Jurkat cells permeabilized with digitonin, Western blot
Protocol: Jurkat cells were treated with vehicle, asparaginase (×48 hrs) to induce formation of GSK3α bodies, or Wnt3A to induce GSK3 sequestration in membrane-bound multivesicular bodies (Taelman et al., 2010). Cells were permeabilized, and treated with vehicle or proteinase K to digest free cytoplasmic proteins. Triton is a control that dissolves all membranes.
It was then determined whether GSK3α bodies are membraneless using the proteinase K protection assay. Jurkat cells were treated with vehicle or asparaginase to trigger GSK3α body formation. As a positive control, treatment with Wnt3A was included, which triggers sequestration of GSK3 inside membrane-bound multivesicular endosomes (19). Following cytoplasmic membrane permeabilization with digitonin, cells were treated with proteinase K, and GSK3α protein levels were assessed by Western blot analysis. […] These findings indicate that GSK3α bodies are membraneless.

Jurkat cells [6] = experiment: GSK3β localization by confocal immunofluorescence microscopy; type: cell-based, human; conditions: asparaginase 100 U/L for 48 hours
Protocol: as §1, §2

Molecule	Survival under essential amino acid starvation [3]	Survival under essential amino acid starvation [4]	Formation of GSK3α puncta on addition of amino acid (Jurkat cells [2])	Accessibility of GSK3α to proteinase K digestion (Jurkat cells [5])	further results
CC[C@@]1(c2ccccc2)C2=C(CC(C)(C)CC2=O)Nc2[nH]ncc21 [BRD0705]	impaired survival	impaired survival	–	–	Viability in leucine-deficient medium (Jurkat cells [1]; leucine-deficient medium): impaired viability; Viability in valine-deficient medium (Jurkat cells [1]; valine-deficient medium): impaired viability; Accumulation of ubiquitin in GSK3α bodies (Jurkat T-ALL cells): did prevent accumulation of ubiquitin in GSK3α bodies; Effect on GSK3α biomolecular condensation in response to asparaginase (Jurkat cells [2]; Jurkat T-ALL cells, combination with asparaginase): did not block the ability of GSK3α to undergo biomolecular condensation
CC[C@]1(c2ccccc2)C2=C(CC(C)(C)CC2=O)Nc2[nH]ncc21 [BRD5648]	had no effect	had no effect	–	–	–
NC(=O)C[C@H](N)C(=O)O [L-Asn, asparagine]	–	–	inhibits the formation of GSK3α puncta	–	–
NC(=O)CC[C@H](N)C(=O)O [L-Glut, glutamine]	–	–	does not	–	–
asparaginase	–	–	–	remained accessible to proteinase K digestion	GSK3α body formation (condensation into cytoplasmic puncta) induced by treatment (Jurkat cells [2]; Jurkat cells, asparaginase 100 U/L for 48 hours): triggered its condensation into distinct cytoplasmic puncta; GSK3β localization after treatment (Jurkat cells [6]): remained broadly distributed regardless of asparaginase therapy
Wnt3A: positive control that triggers sequestration of GSK3 inside membrane-bound multivesicular endosomes (protein, UniProt P56704 19-352, looked up) Protein Wnt-3a: SYPIWWSLAVGPQYSSLGSQPILCASIPGLVPKQLRFCRNYVEIMPSVAEGIKIGIQECQHQFRGRRWNCTTVHDSLAIFGPVLDKATRESAFVHAIASAGVAFAVTRSCAEGTAAICGCSSRHQGSPGKGWKWGGCSEDIEFGGMVSREFADARENRPDARSAMNRHNNEAGRQAIASHMHLKCKCHGLSGSCEVKTCWWSQPDFRAIGDFLKDKYDSASEMVVEKHRESRGWVETLRPRYTYFKVPTERDLVYYEASPNFCEPNPETGSFGTRDRTCNVSSHGIDGCDLLCCGRGHNARAERRREKCRCVFHWCCYVSCQECTRVYDVHTCK	–	–	–	protected from protease digestion	–
